Assay results taken from article PMC3834177 (Cancer Chemotherapy and Pharmacology, 2013).
Marks after values point to notes of the source that are not given here.

Key:
[1] = tested on: human serum protein α1-acid glycoprotein (AAG); parameters: method as in PMID 11230495; conditions: cited from earlier work
[2] = tested on: mutant FLT3; conditions: in vitro; read-out: half-maximal inhibitory concentration (IC50), mutant FLT3; cited from earlier work
[3] = Midostaurin PK when administered with rifampicin; conditions: for AUC0–inf, adjusted geometric mean / AUC0–last, adjusted geometric mean / C max, adjusted geometric mean / t 1/2, adjusted geometric mean / t max, median: plasma, n = 20
Method: These endogenous molecules served as exploratory biomarkers for CYP3A4 activity in vivo [21, 22].
A point estimate and the corresponding 90 % CI for the treatment effect (test vs reference) were calculated. These were anti-logged to obtain the GMR and respective 90 % CI. […] The median difference was estimated with the Hodges–Lehmann estimator and its respective exact two-sided 90 % CI. All formal comparative statistical analyses were performed using SAS software.
(§1) The concentration of ketoconazole in plasma was assessed using a validated LC–MS/MS assay with an LLOQ of 50.0 ng/mL (WuXi Pharmatech Co, Ltd, China). The concentration of rifampicin in plasma was measured using a validated LC–MS/MS assay with an LLOQ of 5.0 ng/mL (SGS, Cephac Europe, SAS). Plasma concentrations of midazolam and its metabolite 1′-hydroxymidazolam, which is generated by CYP3A4 and CYP3A5 in humans, were measured using a validated LC–MS/MS assay with an LLOQ of ≈0.100 ng/mL (SGS, Cephac Europe, SAS). The plasma concentration of 4β-hydroxycholesterol was measured using a validated LC–MS/MS assay with an LLOQ of 3.0 ng/mL (SGS, Cephac Europe, SAS). The concentrations of 6β-hydroxycortisol and cortisol in urine were determined using validated LC–MS/MS assays with an LLOQ of 10.0 ng/mL for 6β-hydroxycortisol and 1.0 ng/mL for cortisol. The ratio of 6β-hydroxycortisol to cortisol was subsequently calculated (SGS, Cephac Europe, SAS). See Supplementary Table 2 for detailed bioanalytical methods for all 3 studies.

[4] = Midostaurin PK when administered with ketoconazole
Method: According to the US Food and Drug Administration, ketoconazole 400 mg once daily is the recommended dose to evaluate DDIs involving CYP3A4 inhibition. [drawing 1]
Adverse events (AEs) were recorded during the study and up to 1 month (28 days) after the end of study. Volunteers remained at the clinic until AEs were common toxicity criteria (CTC) grade ≤1.
A point estimate and the corresponding 90 % CI for the treatment effect were calculated for the test treatment compared with the reference. These were anti-logged to obtain the point estimate and the 90 % CI for the geometric mean ratio (GMR) on the untransformed scale. […] All ANOVAs were performed using SAS software (SAS Institute Inc., Cary, NC, USA).
as §1

[5] = tested on: CYP3A4/5; conditions: in vitro; read-out: IC50, CYP3A4/5 activity (midazolam 1′-hydroxylation); cited from earlier work
[6] = cited from earlier work
[7] = Placebo + midostaurin arm, rifampicin study
[8] = plasma, Ketoconazole + midostaurin arm, n = 18
[9] = plasma, Placebo + midostaurin arm, ketoconazole study, n = 18

CN(C(=O)c1ccccc1)[C@@H]1C[C@H]2O[C@@](C)([C@@H]1O)n1c3ccccc3c3c4c(c5c6ccccc6n2c5c31)C(=O)NC4 [CGP62221]
bound to AAG [1]: 88–98%
IC50 [2]: 26 nM
decrease in exposure (AUClast) in midostaurin + rifampicin arm ([3]; compared with midostaurin alone): 13.0 fold
AUC0–inf, adjusted geometric mean ([3]; Placebo + midostaurin arm (midostaurin 50 mg once), rifampicin study): 35,146.80 ng h/mL
AUC0–last, adjusted geometric mean [3, 7]: 32,266.80 ng h/mL
C max, adjusted geometric mean [3, 7]: 631.46 ng/mL
t 1/2, adjusted geometric mean [3, 7]: 33.74 h
t max, median [3, 7]: 3.00 h
AUC0–inf, adjusted geometric mean ([3]; Rifampicin + midostaurin arm (midostaurin 50 mg once, rifampicin 600 mg daily)): 2,699.43 ng h/mL
AUC0–last, adjusted geometric mean ([3]; Rifampicin + midostaurin arm): 2,501.48 ng h/mL
C max, adjusted geometric mean ([3]; Rifampicin + midostaurin arm): 396.25 ng/mL
t 1/2, adjusted geometric mean ([3]; Rifampicin + midostaurin arm): 7.02 h
t max, median ([3]; Rifampicin + midostaurin arm): 1.50 h
elimination t 1/2 in the presence of ketoconazole ([4]; compared with placebo): prolonged
t max, Hodges–Lehmann estimate of median difference (90 % distribution-free CI) ([4]; ketoconazole + midostaurin vs placebo + midostaurin): 114.0 (92.8, 116.0) h
AUC0–inf, adjusted geometric mean ([4]; plasma, Ketoconazole + midostaurin arm (midostaurin 50 mg once, ketoconazole 400 mg daily), n = 18): 110,234.87 ng h/mL
AUC0–last, adjusted geometric mean [4, 8]: 27,237.87 ng h/mL
C max, adjusted geometric mean [4, 8]: 329.76 ng/mL
t 1/2, adjusted geometric mean ([4]; plasma, Ketoconazole + midostaurin arm, for 4 volunteers only (flat terminal phase in others)): 142.01^b h
AUC0–inf, adjusted geometric mean ([4]; plasma, Placebo + midostaurin arm (midostaurin 50 mg once), ketoconazole study, n = 18): 31,366.63 ng h/mL
AUC0–last, adjusted geometric mean [4, 9]: 27,414.44 ng h/mL
C max, adjusted geometric mean [4, 9]: 586.78 ng/mL
t 1/2, adjusted geometric mean [4, 9]: 36.60 h
t max, median [4, 9]: 3.51 h
IC50 [5]: < 1000 nM
major pathway for elimination [6]: Fecal excretion
